Laboratory results: patent publication US20260242416A1, “ANTIMICROBIAL PEPTIDES” (priority 2023, published 2026)
Where a SMILES comes first, the peptide text is derived from it.

Assays:
E. coli ATCC 25922 = format: cell-based, Escherichia coli; conditions: ATCC 25922
Method: (§1) Bacteria were grown overnight at 37° C. in Mueller-Hinton Broth (MHB; Sigma-Aldrich, St. Louis. MO, USA) in a shaking incubator and aliquoted into cryovials with a 50% glycerol solution in a 1:1 ratio. No additives were added to the MHB during the growth of bacterial isolates. Glycerol stocks were stored at −80° C.
(§2) The antimicrobial activity of the putative AMPs was determined by a broth microdilution assay as described by the Clinical and Laboratory Standards Institute, with the published adaptations for testing of cationic peptides. Escherichia coli 25922 and Staphylococcus aureus 29213 isolates were purchased from the American Type Culture Collection (ATCC; Manassas, VA, USA). A human clinical isolate of Salmonella enterica serovar Enteritidis was provided by the BC Centre for Disease Control. Bacteria from stocks stored at −80° C. were streaked onto nonselective Columbia blood agar with 5% sheep blood (Oxoid) and incubated overnight at 37° C. Next, 2-4 colonies were streaked onto a new agar plate to ensure uniform health of colonies used in the broth microdilution assay. Isolated colonies were suspended in MHB and the optical density was measured with a spectrophotometer to create an initial inoculum concentration of approximately 1×10^8 cfu/mL. The inoculum was diluted 1:250 to a final concentration of 2-8×10^5 cfu/mL, which was confirmed by performing a Total Viability Count (TVC). The TVC consisted of plating a 1:1000 dilution of the final inoculum on nonselective media and was also used to confirm the health and purity of the inoculum in each trial.
(§3) Lyophilized 80 μg peptide aliquots synthesized by GenScript (Piscataway, NJ, USA) were resuspended to 1.28 mg/mL with UltraPure water (Thermo Fisher Scientific, Waltham, MA, USA) and serially diluted in polypropylene 96-well microtiter plates (Greiner Bio-One #650261, Kremsmunster, Austria) from 128 down to 0.5 μg/mL. Two columns per plate were reserved for growth and sterility controls. Inoculum was added to the wells containing the peptide and the growth control. Plates were incubated for 20-24 h at 37° C. The minimum inhibitory concentration (MIC) was determined as the lowest peptide concentration where there was no visible bacterial growth.

[1] = system: Salmonella enterica serovar Enteritidis (human clinical isolate); format: cell-based; conditions: serovar Enteritidis (human clinical isolate)
Method: as §1, §2, §3

S. aureus ATCC 29213 = format: cell-based, Staphylococcus aureus; conditions: ATCC 29213
Method: as §1, §2, §3

| MIC (ug/mL) E. coli (E. coli ATCC 25922) | MIC (ug/mL) S. Enteritidis [1] | MIC (ug/mL) S. aureus (S. aureus ATCC 29213) | Compound |
| --- | --- | --- | --- |
| >128/>128/>128 ug/mL | >128/>128/>128 ug/mL | >128/>128/>128 ug/mL | CC[C@H](C)[C@H](N)C(=O)N[C@H](C(=O)N[C@@H](CCC(=O)O)C(=O)N1CCC[C@H]1C(=O)N[C@H](C(=O)NCC(=O)N[C@H](C(=O)N[C@@H](CCCCN)C(=O)N[C@@H](C)C(=O)N1CCC[C@H]1C(=O)N[C@H](C(=O)N[C@@H](Cc1ccccc1)C(=O)N[C@H](C(=O)N[C@@H](CO)C(=O)N[C@@H](CCC(=O)O)C(=O)N[C@@H](CC(C)C)C(=O)N[C@@H](CCCNC(=N)N)C(=O)NCC(=O)NCC(=O)N[C@@H](Cc1c[nH]c2ccccc12)C(=O)N[C@@H](CC(C)C)C(=O)N[C@@H](CCCCN)C(=O)N[C@@H](CCCCN)C(=O)N[C@@H](CCCNC(=N)N)C(=O)O)[C@@H](C)O)[C@@H](C)O)[C@@H](C)O)C(C)C)[C@@H](C)O [PaVa3] (H-ITEPVGTKAPTFTSELRGGWLKKR-OH; N-terminus and C-terminus assumed) |
| >128/>128/>128 ug/mL | >128/>128/>128 ug/mL | >128/>128/>128 ug/mL | CC(C)C[C@H](NC(=O)[C@H](C)NC(=O)[C@@H](N)Cc1c[nH]c2ccccc12)C(=O)N[C@@H](CCCNC(=N)N)C(=O)N[C@@H](Cc1c[nH]c2ccccc12)C(=O)N[C@@H](CCCCN)C(=O)N[C@H](C(=O)N[C@@H](CCCNC(=N)N)C(=O)O)[C@@H](C)O [PaVi1, WALRWKTR] (H-WALRWKTR-OH; N-terminus and C-terminus assumed) |
| >128/>128/>128 ug/mL | >128/>128/>128 ug/mL | >128/>128/>128 ug/mL | C[C@H](NC(=O)CNC(=O)[C@H](CCCNC(=N)N)NC(=O)[C@H](CCC(=O)O)NC(=O)[C@H](CCC(=O)O)NC(=O)[C@@H](N)CCCCN)C(=O)N1CCC[C@H]1C(=O)N[C@@H](CCCCN)C(=O)NCC(=O)N[C@@H](CS)C(=O)N[C@@H](Cc1c[nH]c2ccccc12)C(=O)N[C@H](C(=O)N[C@@H](CCCCN)C(=O)N[C@@H](CO)C(=O)N[C@@H](Cc1ccc(O)cc1)C(=O)N1CCC[C@H]1C(=O)N1CCC[C@H]1C(=O)N[C@@H](CCCCN)C(=O)N1CCC[C@H]1C(=O)N[C@@H](CS)C(=O)N[C@@H](CO)C(=O)NCC(=O)N[C@@H](CCCCN)C(=O)N[C@@H](CCCNC(=N)N)C(=O)O)[C@@H](C)O [PeNi13] (H-KEERGAPKGCWTKSYPPKPCSGKR-OH; N-terminus and C-terminus assumed) |
| >128/>128/>128 ug/mL | >128/>128/>128 ug/mL | >128/>128/>128 ug/mL | CC(C)C[C@H](NC(=O)[C@H](CCCCN)NC(=O)[C@H](CCCCN)NC(=O)[C@H](CC(C)C)NC(=O)[C@@H](NC(=O)[C@H](Cc1ccc(O)cc1)NC(=O)[C@@H](NC(=O)CNC(=O)[C@H](CCC(=O)O)NC(=O)[C@H](CC(N)=O)NC(=O)[C@H](Cc1c[nH]c2ccccc12)NC(=O)[C@@H]1CCCN1C(=O)[C@H](CO)NC(=O)[C@H](CO)NC(=O)[C@@H]1CCCN1C(=O)[C@H](CC(C)C)NC(=O)[C@@H](N)Cc1ccccc1)[C@@H](C)O)C(C)C)C(=O)N[C@@H](CCCCN)C(=O)N[C@@H](CO)C(=O)O [PeNi15, FLPSSPWNEGTYVLKKLKS] (H-FLPSSPWNEGTYVLKKLKS-OH; N-terminus and C-terminus assumed) |
